“And” between values parts separate entries of the source, which are not always exact repeats. Equal values may be shown once. Read-outs that look alike come from different tables or passages of the source.
Legend:
[1] = Oral pharmacokinetics in male Sprague Dawley rats, suspension in 0.5% Methylcellulose; format: in vivo; conditions: for Plasma concentration, PO1: group value
[2] = Solubility and form stability in deionized water; format: physicochemical
[3] = Oral pharmacokinetics in male beagle dogs, crossover, suspension in 0.5% MC; format: in vivo; conditions: for Inter-individual variability: 2 mg/Kg oral, crossover
Method: The objective was to compare the pharmacokinetic profiles of both forms in dogs using a crossover study design in which the same dogs were dosed sequentially with amorphous and monohydrate crystalline Form A with a washout period in between.

[4] = Gravimetric moisture sorption; format: physicochemical; conditions: over a relative humidity range of 5 to 95%
Source text: This level of stability is rare for many pharmaceutical compounds, and particularly for hydrated forms since most are typically stable only at lower threshold values. Typically, one would expect to see stability of a monohydrate stoichiometry over a more limited range, e.g., between 30 to 70%. At relative humidity levels below 30% a compound would still retain water, but the stoichiometric ratio would be less than that of a true monohydrate. Likewise, at high relative humidity, the stoichiometric ratio of water to compound would exceed that of a monohydrate.

[5] = 60 mg/Kg single oral dose, 1 h, 60 mg/kg
[6] = 60 mg/Kg single oral dose, 1 h, 60 mg/kg, in ng/mL
[7] = 60 mg/Kg single oral dose, 2 h, 60 mg/kg
[8] = 60 mg/Kg single oral dose, 2 h, 60 mg/kg, in ng/mL
[9] = 60 mg/Kg single oral dose, 4 h, 60 mg/kg
[10] = 60 mg/Kg single oral dose, 8 h, 60 mg/kg
[11] = 60 mg/Kg single oral dose, 24 h, 60 mg/kg
[12] = male beagle dog, 2 mg/Kg single oral dose, 0.25 h, 2 mg/kg
[13] = male beagle dog, 2 mg/Kg single oral dose, 0.5 h, 2 mg/kg
[14] = male beagle dog, 2 mg/Kg single oral dose, 1 h, 2 mg/kg
[15] = male beagle dog, 2 mg/Kg single oral dose, 2 h, 2 mg/kg
[16] = male beagle dog, 2 mg/Kg single oral dose, 4 h, 2 mg/kg
[17] = male beagle dog, 2 mg/Kg single oral dose, 6 h, 2 mg/kg
[18] = male beagle dog, 2 mg/Kg single oral dose, 8 h, 2 mg/kg
[19] = male beagle dog, 2 mg/Kg single oral dose, 12 h, 2 mg/kg
[20] = male beagle dog, 2 mg/Kg single oral dose, 24 h, 2 mg/kg
[21] = male beagle dog, 2 mg/Kg single oral dose, 2 mg/kg
[22] = 60 mg/Kg single oral dose, 60 mg/kg

Cc1noc2c1-c1ccccc1C(c1ccc(Cl)cc1)=N[C@H]2CC(N)=O [amorphous form, 2-((4S)-6-(4-chlorophenyl)-1-methyl-4H-benzo[c]isoxazolo[4,5-e]azepin-4-yl)acetamide]
Plasma concentration, individual rats [1, 5]: 8650 ng/mL
Plasma concentration, Mean [1, 6]: 11700
Plasma concentration, individual rats [1, 6]: 12700 and 13800
Plasma concentration, individual rats [1, 7]: 8830 ng/mL
Plasma concentration, Mean [1, 8]: 11900
Plasma concentration, individual rats [1, 8]: 14900 and 12100
Plasma concentration, Mean [1, 9]: 9860 ng/mL
Plasma concentration, individual rats [1, 9]: 8410 ng/mL and 9370 ng/mL
Plasma concentration, individual rats ([1]; 60 mg/Kg single oral dose, 4 h, 60 mg/kg, in ng/mL): 11800
Plasma concentration, Mean [1, 10]: 6440 ng/mL
Plasma concentration, individual rats [1, 10]: 6550 ng/mL and 6450 ng/mL and 6310 ng/mL
Plasma concentration, Mean ([1]; 60 mg/Kg single oral dose, 24 h): BQL
Plasma concentration, individual rats [1, 11]: BQL
Cmax ([1]; male, Sprague Dawley, rat, plasma, po, 60 mg/kg, 60 mg/Kg single oral dose, read-out: Cmax): 11900 ng/mL
Tmax ([1]; rat, plasma, 60 mg/Kg single oral dose, read-out: Tmax): 2 h
Form change upon slurry in deionized water ([2]; slurry in deionized water for 24 hr at ambient temperature): conversion to monohydrate Form A was observed
Inter-individual variability ([3]; male beagle dog): low inter-individual variability
Plasma concentration, Mean [3, 12]: 188 ng/mL
Plasma concentration, Mean [3, 13]: 471 ng/mL
Plasma concentration, Mean [3, 14]: 658 ng/mL
Plasma concentration, Mean [3, 15]: 577 ng/mL
Plasma concentration, Mean [3, 16]: 528 ng/mL
Plasma concentration, Mean [3, 17]: 289 ng/mL
Plasma concentration, Mean [3, 18]: 232 ng/mL
Plasma concentration, Mean [3, 19]: 153 ng/mL
Plasma concentration, Mean [3, 20]: 64 ng/mL
AUC0-inf, individual dogs [3, 21]: 5120 ng·h/mL and 7510 ng·h/mL and 6550 ng·h/mL and 4950 ng·h/mL and 7070 ng·h/mL
AUC0-last, individual dogs [3, 21]: 4560 ng·h/mL and 6220 ng·h/mL and 5540 ng·h/mL and 4610 ng·h/mL and 6060 ng·h/mL
Cmax, individual dogs [3, 21]: 646 ng/mL and 681 ng/mL and 672 ng/mL and 705 ng/mL and 706 ng/mL
MRT0-last, individual dogs [3, 21]: 7.73 h (2×) and 6.48 h and 7.69 h
T1/2, individual dogs [3, 21]: 7.86 h and 10.17 h and 9.21 h and 6.82 h and 9.17 h
Tmax, individual dogs [3, 21]: 1.00 h (5×) and 4.00 h
Tmax ([3]; male, beagle, dog, plasma, po, 2 mg/kg, 2 mg/Kg single oral dose): 1.5 h
AUC(0-inf) ([3]; male, beagle, dog, plasma, po, 2 mg/kg, 2 mg/Kg single oral dose, read-out: AUC0-inf, Mean): 6220 ng·h/mL
AUC(0-inf) ([3]; male, beagle, dog, plasma, po, 2 mg/kg, 2 mg/Kg single oral dose, read-out: AUC0-inf, individual dogs): 6110 ng·h/mL
AUC(0-t) ([3]; male, beagle, dog, plasma, po, 2 mg/kg, 2 mg/Kg single oral dose, read-out: AUC0-last, Mean): 5390 ng·h/mL
AUC(0-t) ([3]; male, beagle, dog, plasma, po, 2 mg/kg, 2 mg/Kg single oral dose, read-out: AUC0-last, individual dogs): 5370 ng·h/mL
Cmax ([3]; male, beagle, dog, plasma, po, 2 mg/kg, 2 mg/Kg single oral dose, read-out: Cmax, Mean): 670 ng/mL
Cmax ([3]; male, beagle, dog, plasma, po, 2 mg/kg, 2 mg/Kg single oral dose, read-out: Cmax, individual dogs): 609 ng/mL
MRT inf ([3]; male, beagle, dog, plasma, po, 2 mg/kg, 2 mg/Kg single oral dose, read-out: MRT0-inf, Mean): 11.2 h
MRT inf ([3]; male, beagle, dog, plasma, po, 2 mg/kg, 2 mg/Kg single oral dose, read-out: MRT0-inf, individual dogs): 11 h
MRT last ([3]; male, beagle, dog, plasma, po, 2 mg/kg, 2 mg/Kg single oral dose, read-out: MRT0-last, Mean): 7.45 h
MRT last ([3]; male, beagle, dog, plasma, po, 2 mg/kg, 2 mg/Kg single oral dose, read-out: MRT0-last, individual dogs): 7.59 h
half-life ([3]; male, beagle, dog, plasma, po, 2 mg/kg, 2 mg/Kg single oral dose, read-out: T1/2, Mean (converted)): 8.59 h
half-life ([3]; male, beagle, dog, plasma, po, 2 mg/kg, 2 mg/Kg single oral dose, read-out: T1/2, individual dogs (converted)): 8.31 h

Cc1noc2c1-c1ccccc1C(c1ccc(Cl)cc1)=N[C@H]2CC(N)=O [monohydrate Form A, 2-((4S)-6-(4-chlorophenyl)-1-methyl-4H-benzo[c]isoxazolo[4,5-e]azepin-4-yl)acetamide]
Water content (monohydrate stoichiometry) in gravimetric moisture sorption [4]: approximately 5%
Plasma concentration, individual rats ([1]; 10 mg/Kg single oral dose, 299 s, 10 mg/kg): 51.3 ng/mL and 182 ng/mL and 89.2 ng/mL and 191 ng/mL and 166 ng/mL and 31.5 ng/mL
Plasma concentration, individual rats ([1]; 10 mg/Kg single oral dose, 1.00 h, 10 mg/kg): 1940 ng/mL and 1620 ng/mL and 1510 ng/mL and 2300 ng/mL and 1790 ng/mL and 1600 ng/mL
Plasma concentration, PO1 ([1]; 10 mg/Kg single oral dose, 1.00 h): 1790 ng/mL
Plasma concentration, individual rats ([1]; 10 mg/Kg single oral dose, 2.00 h, 10 mg/kg): 1400 ng/mL and 1320 ng/mL and 1420 ng/mL and 1650 ng/mL and 950 ng/mL and 1000 ng/mL
Plasma concentration, PO1 ([1]; 10 mg/Kg single oral dose, 2.00 h): 1290 ng/mL
Plasma concentration, individual rats ([1]; 10 mg/Kg single oral dose, 4.00 h, 10 mg/kg): 611 ng/mL and 349 ng/mL and 569 ng/mL and 544 ng/mL and 166 ng/mL and 255 ng/mL
Plasma concentration, PO1 ([1]; 10 mg/Kg single oral dose, 4.00 h): 416 ng/mL
Plasma concentration, individual rats ([1]; 10 mg/Kg single oral dose, 8.00 h, 10 mg/kg): 56.3 ng/mL and 18.1 ng/mL and 32.4 ng/mL and 13.6 ng/mL and 2.93 ng/mL and 18.2 ng/mL
Plasma concentration, PO1 ([1]; 10 mg/Kg single oral dose, 8.00 h): 23.6 ng/mL
Tmax ([1]; 60 mg/Kg single oral dose): 2.0 h
AUC0-last [1, 22]: 52800 ng·h/mL
Cmax [1, 22]: 7197 ng/mL
Plasma concentration, Mean ([1]; 60 mg/Kg single oral dose, 299 s): 304 ng/mL
Plasma concentration, individual rats ([1]; 60 mg/Kg single oral dose, 299 s, 60 mg/kg): 183 ng/mL and 407 ng/mL and 512 ng/mL and 158 ng/mL and 391 ng/mL and 172 ng/mL
Plasma concentration, Mean ([1]; 60 mg/Kg single oral dose, 0.250 h): 2150 ng/mL
Plasma concentration, individual rats ([1]; 60 mg/Kg single oral dose, 0.250 h, 60 mg/kg): 1830 ng/mL and 2770 ng/mL and 2670 ng/mL and 2150 ng/mL and 2050 ng/mL and 1420 ng/mL
Plasma concentration, Mean ([1]; 60 mg/Kg single oral dose, 0.500 h): 4060 ng/mL
Plasma concentration, individual rats ([1]; 60 mg/Kg single oral dose, 0.500 h, 60 mg/kg): 3610 ng/mL and 5250 ng/mL and 3790 ng/mL and 4120 ng/mL and 4050 ng/mL and 3550 ng/mL
Plasma concentration, Mean [1, 5]: 5530 ng/mL
Plasma concentration, individual rats [1, 5]: 5290 ng/mL and 6110 ng/mL and 6840 ng/mL and 5440 ng/mL and 4740 ng/mL and 4770 ng/mL
Plasma concentration, Mean [1, 7]: 7200 ng/mL
Plasma concentration, individual rats [1, 7]: 8220 ng/mL and 7490 ng/mL and 6700 ng/mL and 8330 ng/mL and 6850 ng/mL and 5590 ng/mL
Plasma concentration, Mean [1, 9]: 6070 ng/mL
Plasma concentration, individual rats [1, 9]: 7740 ng/mL and 4850 ng/mL and 5160 ng/mL and 8350 ng/mL and 5690 ng/mL and 4650 ng/mL
Plasma concentration, Mean [1, 10]: 1760 ng/mL
Plasma concentration, individual rats [1, 10]: 3050 ng/mL and 805 ng/mL and 1220 ng/mL and 1960 ng/mL and 2320 ng/mL and 1200 ng/mL
Plasma concentration, individual rats [1, 11]: BQL (5×) and 1.04
AUC(0-t) ([1]; male, Sprague Dawley, rat, plasma, po, 10 mg/kg, 10 mg/Kg single oral dose): 5500 ng·h/mL
Cmax ([1]; male, Sprague Dawley, rat, plasma, po, 10 mg/kg, 10 mg/Kg single oral dose, read-out: Cmax): 1790 ng/mL
Inter-individual differences ([1]; oral, 10 and 60 mg/Kg): Low inter-individual differences
Dose proportionality of Cmax and AUC ([1]; oral, dose increases from 10 to 60 mg/Kg): increase slightly more than proportionally with the dose
Tmax ([1]; rat, plasma, 10 mg/Kg single oral dose, read-out: Tmax): 1 h
Stability of the form in deionized water ([2]; deionized water): stable
solubility ([2]; deionized water, water, thermodynamic from solid): 4.5 µg/mL
Inter-individual variability ([3]; male beagle dog): low inter-individual variability
Tmax, Mean ([3]; male beagle dog, 2 mg/Kg single oral dose): 1.50 h
Plasma concentration, Mean [3, 12]: 100 ng/mL
Plasma concentration, Mean [3, 13]: 330 ng/mL
Plasma concentration, Mean [3, 14]: 522 ng/mL
Plasma concentration, Mean [3, 15]: 512 ng/mL
Plasma concentration, Mean [3, 16]: 435 ng/mL
Plasma concentration, Mean [3, 17]: 278 ng/mL
Plasma concentration, Mean [3, 18]: 214 ng/mL
Plasma concentration, Mean [3, 19]: 151 ng/mL
Plasma concentration, Mean [3, 20]: 67.1 ng/mL
AUC0-inf, Mean [3, 21]: 5853 ng·h/mL
AUC0-inf, individual dogs [3, 21]: 5350 ng·h/mL and 4540 ng·h/mL and 7490 ng·h/mL and 4980 ng·h/mL and 6220 ng·h/mL and 6540 ng·h/mL
AUC0-last, Mean [3, 21]: 4892 ng·h/mL
AUC0-last, individual dogs [3, 21]: 4650 ng·h/mL and 4040 ng·h/mL and 5850 ng·h/mL and 3960 ng·h/mL and 5390 ng·h/mL and 5460 ng·h/mL
Cmax, Mean [3, 21]: 536 ng/mL
Cmax, individual dogs [3, 21]: 542 ng/mL and 482 ng/mL and 615 ng/mL and 459 ng/mL and 549 ng/mL and 569 ng/mL
MRT0-last, Mean [3, 21]: 7.95 h
MRT0-last, individual dogs [3, 21]: 7.74 h and 7.34 h and 8.38 h and 8.01 h and 7.93 h and 8.32 h
T1/2, Mean [3, 21]: 9.70 h
T1/2, individual dogs [3, 21]: 8.60 h and 8.14 h and 11.97 h and 11.58 h and 8.31 h and 9.57 h
Tmax, individual dogs [3, 21]: 2.00 h

Source: US9969747B2 (Constellation Pharmaceuticals, Inc., priority 2014, dated 2018)
